The source of these data is ChEMBL document CHEMBL1201862, “PubChem BioAssay data set” (2004).

Test systems include A549; COLO 205; HCT-15; HT-29; M14; MCF7; MDA-MB-231; NCI-H460; OVCAR-4; PC-3; RPMI-8226; SF-268; SK-MEL-2; SK-MEL-5; SK-OV-3; SR; T47D; TK-10; UACC-257; SN12C.
What all share (test): inhibition of tumour cell growth, NCI panel, 48 h

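Five concentrations, 48 hours, 96-well plates. The concentration for 50% growth inhibition is given as GI50.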 The source made the active and inactive calls. No stated cut-off is given here; in the data, active = GI50 up to about 1.1 µM and inactive = higher.

For `C[C@@H](c1ccccc1)C(CC#N)[C@H]1CCC[C@]1(O)C#Cc1ccc2c(c1)OCO2` (stereo partly drawn), the GI50 in the assay with A549 is 16.3 µM (inactive); in the assay on COLO 205, 18.2 µM (inactive); with HCT-15, 16 µM; with HT-29 it was 15.2 µM (inactive); with M14, 16.9 µM (inactive); with MCF7, 18.4 µM (inactive). The GI50 was 17.5 µM (inactive) in the assay with MDA-MB-231; 16.1 µM (inactive) in the assay on NCI-H460; 15.8 µM (inactive) in the assay on OVCAR-4; 15.9 µM (inactive) in the assay with PC-3; 23.2 µM (inactive) with RPMI-8226; 19.6 µM (inactive) with SF-268. Besides, the GI50 with SK-MEL-2 was 17.6 µM (inactive); with SK-MEL-5, 18.6 µM (inactive); with SK-OV-3, 18.1 µM (inactive); in the assay on SR it was 19.7 µM (inactive); in the assay with T47D, 15.7 µM (inactive); with TK-10 it was 16 µM (inactive). For the same molecule, in the assay on UACC-257, the GI50 is 18.2 µM (inactive).

Turning to `C[N+](C)(C)CCN(Cc1cccs1)c1ccccn1`, the GI50 in the assay on A549 is 68.9 µM (inactive); in the assay on COLO 205, 35.2 µM (inactive); in the assay on HCT-15, above 100 µM; in the assay with M14, > 100 µM (inactive); in the assay with MCF7, > 100 µM (inactive); in the assay on MDA-MB-231, > 100 µM (inactive). The GI50 was > 100 µM (inactive) in the assay on NCI-H460; > 100 µM (inactive) in the assay with OVCAR-4; > 100 µM (inactive) in the assay on PC-3; > 100 µM (inactive) with RPMI-8226; 86.7 µM (inactive) in the assay on SF-268; > 100 µM (inactive) in the assay on SK-MEL-2. For the same molecule, the GI50 in the assay with SK-MEL-5 is > 100 µM (inactive); with SK-OV-3, > 100 µM (inactive); in the assay on SN12C, 90.4 µM (inactive); in the assay on SR it was > 100 µM (inactive); in the assay on T47D, > 100 µM (inactive); in the assay with TK-10 it was > 100 µM (inactive). For the same molecule, the GI50 in the assay on UACC-257 is > 100 µM (inactive).

In the case of `O=C1CCCC2C3CC(CN12)C1CCCCN1C3.[O-][Cl+3]([O-])([O-])O` (stereo not drawn), the GI50 is > 100 µM (inactive) in the assay on A549; > 100 µM (inactive) in the assay on COLO 205; above 100 µM in the assay with HCT-15; > 100 µM (inactive) in the assay with HT-29; > 100 µM (inactive) with M14; > 100 µM (inactive) in the assay with MCF7. The GI50 in the assay on MDA-MB-231, with NCI-H460, in the assay with OVCAR-4, with PC-3, with RPMI-8226 and with SF-268 was > 100 µM (inactive) in each case. For the same molecule, the GI50 with SK-MEL-2, with SK-MEL-5, in the assay on SK-OV-3, in the assay with SN12C, with SR and in the assay on T47D was > 100 µM (inactive) throughout. The GI50 with TK-10 and in the assay on UACC-257 was > 100 µM (inactive) throughout.

`Nc1ccn([C@H]2CO[C@@H](CO)[C@@H]2O)c(=O)n1`: the GI50 with COLO 205 was > 100 µM (inactive); in the assay on HCT-15 it was above 100 µM; in the assay on HT-29, > 100 µM (inactive); with MCF7, > 100 µM (inactive); with MDA-MB-231, > 100 µM (inactive); with NCI-H460, > 100 µM (inactive). Moreover, the GI50 in the assay on OVCAR-4, in the assay with PC-3, in the assay on RPMI-8226, in the assay on SF-268, in the assay on SK-MEL-2 and in the assay on SK-MEL-5 was > 100 µM (inactive) each time. Also, the GI50 with SK-OV-3, in the assay with SN12C, in the assay with SR, with T47D, in the assay on TK-10 and with UACC-257 was > 100 µM (inactive) throughout.

Consider `CCCC[C@@H](C)/C=C1\CN2CCC[C@H]2[C@@](C)(O)[C@@H]1O`, for which the GI50 is 43.7 µM (inactive) in the assay on A549; > 100 µM (inactive) with COLO 205; above 100 µM in the assay on HCT-15; 43.2 µM (inactive) with HT-29; 53 µM (inactive) in the assay with M14; 80.2 µM (inactive) in the assay on MCF7. The GI50 in the assay on MDA-MB-231 was > 100 µM (inactive); in the assay on NCI-H460 it was 16.7 µM (inactive); in the assay with OVCAR-4, 21.9 µM (inactive); in the assay with PC-3, > 100 µM (inactive); in the assay with RPMI-8226 it was > 100 µM (inactive); in the assay with SF-268, 44.7 µM (inactive). Besides, the GI50 is > 100 µM (inactive) in the assay with SK-MEL-2; 79.1 µM (inactive) in the assay on SK-MEL-5; 73.3 µM (inactive) in the assay with SK-OV-3; 9.2 µM (inactive) in the assay with SR; 30.8 µM (inactive) with T47D; > 100 µM (inactive) in the assay on TK-10. Moreover, the GI50 in the assay on UACC-257 is > 100 µM (inactive).

For `CCCCCCNC(=O)c1cc(C#Cc2cc(OC)ccc2OC)ccc1OC`, the GI50 in the assay on A549 is > 100 µM (inactive); in the assay with COLO 205, 55.3 µM (inactive); in the assay with HCT-15, 7.48 µM; in the assay on HT-29, 7.53 µM (inactive); with M14, 17.5 µM (inactive); in the assay on MCF7, > 100 µM (inactive). The GI50 in the assay with MDA-MB-231 was > 100 µM (inactive); in the assay with NCI-H460, 8.73 µM (inactive); with OVCAR-4 it was > 100 µM (inactive); with PC-3 it was 62.1 µM (inactive); with RPMI-8226 it was 8.28 µM (inactive); in the assay with SF-268 it was > 100 µM (inactive). For the same molecule, the GI50 with SK-MEL-2 was > 100 µM (inactive); with SK-MEL-5, 19.6 µM (inactive); with SK-OV-3, > 100 µM (inactive); in the assay on SR, 3.18 µM (inactive); with T47D it was 2.31 µM (inactive); in the assay with TK-10, > 100 µM (inactive). Moreover, the GI50 with UACC-257 was > 100 µM (inactive).

As to `CCOC(=O)c1nnsc1NC(=O)NCCCCCCn1c(=O)n(CCCCCCNC(=O)Nc2snnc2C(=O)OCC)c(=O)n(CCCCCCNC(=O)Nc2snnc2C(=O)OCC)c1=O`, the GI50 in the assay with A549 is > 100 µM (inactive); in the assay on COLO 205 it was > 100 µM (inactive); in the assay on HCT-15, above 100 µM; with HT-29, > 100 µM (inactive); in the assay with M14, > 100 µM (inactive); in the assay with MCF7, 97.3 µM (inactive). The GI50 was 15.2 µM (inactive) in the assay on MDA-MB-231; 21.5 µM (inactive) in the assay with NCI-H460; 80 µM (inactive) in the assay with OVCAR-4; 50.9 µM (inactive) with PC-3; 11 µM (inactive) with RPMI-8226; 19.8 µM (inactive) in the assay on SF-268. Further, the GI50 with SK-MEL-2 is > 100 µM (inactive); in the assay with SK-MEL-5, 71.1 µM (inactive); in the assay on SK-OV-3 it was 40.2 µM (inactive); with SN12C, 33.3 µM (inactive); with SR, > 100 µM (inactive); with T47D it was 33 µM (inactive). Moreover, the GI50 in the assay on UACC-257 was 85.3 µM (inactive).
